Measurements taken from paper PMC6600545, “Novel Peptide-Based Inhibitors for Microtubule Polymerization in Phytophthora capsici” (International Journal of Molecular Sciences, 2019).
Values joined by “and” are separate entries in the source; they are usually repeats but may differ in a detail not shown here. Equal entries are not always repeated. Peptide text beside a SMILES is read from it. * marks the point of attachment. FITC = O=C1OC2(c3ccc(O)cc3Oc3cc(O)ccc32)c2ccc(NC(=S)*)cc21

What was measured:
[1] = cited from earlier work
Text: In the past decade, several new chemical classes which display potent antifungal activity targeting fungal α, β-tubulin have been developed such as zoxamide, inhibiting β-tubulin in Phytophthora sojae (P. sojae); methyl benzimidazole carbamate, (MBC) inhibiting β-tubulin in Podosphaera xanthii (P. xanthii); and benomyl. One of these microtubule-targeted fungicides is benomyl. In the presence of benomyl, the polymerization of tubulin to microtubules is inhibited resulting in retarded cell division.

[2] = target: T1, P. capsici α, β-tubulin microtubule polymerization (Phytophthora capsici, UniProt A4ZYP2+A4ZYP4); assay: biochemical
Experimental: The IC50 values of the four synthetic peptides were determined by fitting the relative inhibition data via the below Equation (1), where V0 is the reaction rate without inhibitor, Vf is the rate at saturation inhibition, and [I] is the inhibitor concentration. (1) V=(V0−Vf)×IC50/IC50+[I]+Vf
(§1) The polymerization and inhibition of microtubule assembly were studied using a spectroscopic method. Purified α, β-tubulins were mixed with 120 μL of polymerization buffer (80 mM PIPES (pH 7.4), 1 mM EGTA, 1 mM MgCl2, and 5% v/v glycerol) to a final concentration of 0.5 mg/mL total tubulin in 300 μL final reaction mixture. The polymerization assay was initiated with the addition of 2.5 mM GTP, and the reaction was continued until it reached the saturation point for 40 min. The contents were mixed, and the resulting turbidity due to microtubule formation was measured at 350 nm using an Optizen 2120 UV spectrophotometer. […] Furthermore, the polymerization and inhibition of microtubule formation were also confirmed through sodium dodecyl sulfate–polyacrylamide gel electrophoresis (SDS-PAGE), Western blot, and transmission electron microscopy (TEM). For the TEM analysis, samples were prepared according to the protocol reported by Vulevic et al.. Briefly, 30 μL of the saturated product of the polymerization reaction was immediately diluted with 10 μL of 0.4% glutaraldehyde, and the mixture was incubated for 3 min at room temperature. Then, 10 μL of the solution was applied to a 200 mesh, copper/formvar-coated grid (EMS) for 1 min, which was sequentially washed using two drops of dH2O and stained for 2 min with a drop of 2% uranyl acetate. Excess stain was removed by blotting with filter paper. Samples were air-dried and later viewed under a TEM.

[3] = target: T1, P. capsici α, β-tubulin microtubule polymerization; assay: Inhibition of microtubule polymerization by phages (turbidity at 350 nm); format: biochemical; details: phage 10 nM, 40 min reaction time
Experimental: As a next step, all 15 phages were used to determine whether the phages could inhibit the activity of microtubule polymerization of P. capsici. The concentration of each phage was constant at 10 nM, and the polymerization was measured after 40 min of reaction time.
as §1

[4] = target: P. capsici α, β-tubulin; assay: ELISA binding affinity of phages displaying tubulin-binding peptides (anti-M13 antibody); design: species or system Phytophthora capsici; details: phage displaying the peptide, 5 μg tubulin per well, OD 450 nm
Experimental: Phage display was conducted with the M13 phage library in an effort to identify specific binding peptides to α, β-tubulin proteins from P. capsici. After five rounds of biopanning toward each target protein, 169 phage clones for α-tubulin and 112 for β-tubulin were selected. […] Testing was done for all the phages with different sequences to estimate their binding affinities for α, β-tubulins of P. capsici.
Phages displaying α, β-tubulin binding peptides were prepared, and their concentrations were determined by measurement of plaque-forming units (pfu) per volume. The binding affinities of phages displaying α, β-tubulin binding peptides were determined by the ELISA method, as described previously. Briefly, α, β-tubulin binding peptides were added in a concentration-dependent manner to a 96-well plate containing α, β-tubulin protein (5 μg per well), as indicated. The wells were then washed 10 times with 1X TBST (50 mM Tris-HCl, pH 7.5, 150 mM NaCl, and 0.1% Tween-20), followed by probing with an anti-M13 antibody (mouse monoclonal antibody, 1:5000 in 1X TBST, 0.2 μg·ml^−1; Amersham Bioscience, Little Chalfont, UK) for 1 h at room temperature. After washing five times with 1 X TBST buffer, anti-mouse IgG-horseradish peroxidase (HRP) conjugate was added, and the mixture was incubated for 1 h, followed by a color-developing reaction with tetramethylbenzidine (TMB) substrate solution ([TMB]/H2O2; Chemicon, Billerica, MA, USA). After 15 min, the reaction was terminated by the addition of 1 M H2SO4, and the optical densities were measured at 450 nm with a Biotrak multiwall plate reader (Amersham Bioscience).

[5] = target: P. capsici α, β-tubulin; assay: Fluorometric binding affinity of FITC-labeled synthetic peptides; design: species or system Phytophthora capsici; details: FITC-labeled peptide, immobilised tubulin in 96-well plate, 2 h, ex 495 / em 520 nm
Text: These peptides were synthesized with FITC-label for detection of the difference in the fluorescence by the absence and presence of target binding using a fluorescence microplate reader (see the Materials and Methods).
(§2) Peptides were synthesized by AnyGen Inc. (Gwangju, Korea). To prevent unintended interaction with other molecules, the peptides used in this study were modified by acetylation at the N-terminus and amidation at the C-terminus. With the addition of a lysine residue, the peptides were labeled with FITC at the C-terminus. This labeling was used for the identification of the target binding property by means of fluorescence detection. The purity of the synthesized peptides was greater than 90%, as assessed by HPLC. The peptides were further characterized to estimate their binding affinity and specificity. Briefly, serial dilutions of FITC-labeled peptides were incubated with α, β-tubulin proteins immobilized on a 96-well plate for 2 h. The binding affinities of the FITC-labeled peptides were determined by a fluorescence microplate reader (Molecular Devices, Sunnyvale, CA, USA) using the soft Max V5 system, with excitation at 495 nm and emission at 520 nm. The specificities of identified peptides for the target proteins were evaluated using the same fluorometric method described above, incorporating homologous H. sapiens α, β-tubulin. BSA protein was used as a negative control.

[6] = target: H. sapiens α, β-tubulin; assay: Fluorometric binding affinity of FITC-labeled synthetic peptides (specificity); details: FITC-labeled peptide, immobilised tubulin in 96-well plate, 2 h, ex 495 / em 520 nm
Text: Investigation of the binding affinity for α, β-tubulins of H. sapiens to the synthesized peptides is necessary because peptide binding to H. sapiens tubulins could trigger severe toxicity in humans. First, α, β-tubulins of H. sapiens were individually overexpressed and purified (Figure 1). […] In addition, bovine serum albumin (BSA) was used as another control to confirm the specificity of the synthesized peptides. No significant binding fluorescence intensities for BSA were detected.
as §2

[7] = tested on: P. capsici microtubules; assay: TEM analysis of polymerized microtubules; format: biochemical, Phytophthora capsici; details: polymerized for 40 min
Experimental: as §1, with “Excess stain was removed by blotting with filter paper. Samples were air-dried and later viewed under a TEM.” left out

[8] = tested on: H. sapiens α, β-tubulin microtubule polymerization; assay: Microtubule polymerization inhibition assay with synthetic peptides (turbidity at 350 nm); format: biochemical; details: 0.5 mg/mL total tubulin, 2.5 mM GTP, 40 min
Text: (1) V=(V0−Vf)×IC50/IC50+[I]+Vf
Excess stain was removed by blotting with filter paper.

T1 sequence (A4ZYP4 1-453): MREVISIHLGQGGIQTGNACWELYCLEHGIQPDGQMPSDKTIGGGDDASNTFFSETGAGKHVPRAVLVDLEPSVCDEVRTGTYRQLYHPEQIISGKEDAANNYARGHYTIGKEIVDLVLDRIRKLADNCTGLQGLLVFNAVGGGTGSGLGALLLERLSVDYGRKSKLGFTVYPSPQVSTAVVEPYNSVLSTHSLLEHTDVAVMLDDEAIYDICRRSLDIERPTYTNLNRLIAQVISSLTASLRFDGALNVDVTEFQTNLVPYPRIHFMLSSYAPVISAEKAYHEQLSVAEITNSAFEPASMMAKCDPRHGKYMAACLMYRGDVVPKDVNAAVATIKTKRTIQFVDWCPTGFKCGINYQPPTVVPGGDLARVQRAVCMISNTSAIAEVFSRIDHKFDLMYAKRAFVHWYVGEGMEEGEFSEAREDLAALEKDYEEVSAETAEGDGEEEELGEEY
T1 sequence (A4ZYP2 1-446): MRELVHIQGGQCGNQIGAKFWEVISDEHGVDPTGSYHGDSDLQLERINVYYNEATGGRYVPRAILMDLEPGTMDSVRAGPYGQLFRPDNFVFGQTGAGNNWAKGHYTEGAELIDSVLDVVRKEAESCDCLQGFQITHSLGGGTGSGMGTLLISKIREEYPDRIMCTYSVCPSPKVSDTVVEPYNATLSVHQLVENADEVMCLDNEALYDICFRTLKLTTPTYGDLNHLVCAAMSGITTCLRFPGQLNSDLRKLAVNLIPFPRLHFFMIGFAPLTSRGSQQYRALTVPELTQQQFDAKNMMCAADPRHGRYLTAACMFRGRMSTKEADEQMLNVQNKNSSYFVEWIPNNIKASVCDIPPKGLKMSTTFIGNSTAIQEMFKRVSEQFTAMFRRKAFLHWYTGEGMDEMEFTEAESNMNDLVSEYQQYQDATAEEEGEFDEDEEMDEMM

CCCCNC(=O)n1c(NC(=O)OC)nc2ccccc21 [benomyl]
solubility in water [1]: low solubility

CC[C@H](C)[C@H](NC(C)=O)C(=O)N[C@H](C(=O)N[C@@H](CCSC)C(=O)N[C@@H](CO)C(=O)N[C@H](C(=O)N1CCC[C@H]1C(=O)N[C@@H](C)C(=O)N[C@@H](Cc1c[nH]cn1)C(=O)N[C@@H](CC(N)=O)C(=O)N[C@@H](C)C(=O)N[C@@H](CCCCN)C(=O)N[C@@H](CCC(=O)O)C(=O)N[C@@H](CCCCNC(=S)Nc1ccc2c(c1)C(=O)OC21c2ccc(O)cc2Oc2cc(O)ccc21)C(N)=O)C(C)C)[C@@H](C)O [α_P1] (Ac-ITMSVPAHNAKEK(FITC)-NH2)
IC50 [2]: 2690 nM | percent inhibition of microtubule polymerization [3]: 28% | Kd [4]: 0.0342 ± 0.00211 nM | Kd [5]: 69.5 ± 6.4 nM | Kd [6]: 134 ± 48.8 nM

CC(=O)N[C@H](C(=O)N[C@@H](CC(N)=O)C(=O)N[C@H](C(=O)N[C@@H](CO)C(=O)N[C@@H](Cc1c[nH]c2ccccc12)C(=O)N[C@@H](CC(=O)O)C(=O)N1CCC[C@H]1C(=O)N[C@@H](CCC(N)=O)C(=O)N[C@@H](Cc1ccc(O)cc1)C(=O)N[C@@H](CC(N)=O)C(=O)N1CCC[C@H]1C(=O)N[C@@H](CC(=O)O)C(=O)N[C@@H](CCCCNC(=S)Nc1ccc2c(c1)C(=O)OC21c2ccc(O)cc2Oc2cc(O)ccc21)C(N)=O)[C@@H](C)O)[C@@H](C)O [α_P2] (Ac-TNTSWDPQYNPDK(FITC)-NH2)
IC50 [2]: 802 nM | microtubule morphology by TEM ([7]; 1 μM peptide): Amorphous morphology of microtubules occurred predominantly | microtubule formation by TEM ([7]; Ten micromolar peptide): completely inhibited the formation of microtubules | percent inhibition of microtubule polymerization [3]: 54% | Kd [4]: 0.0801 ± 0.00113 nM | IC50 [8]: 2430 nM | Kd [5]: 93.9 ± 11.2 nM | Kd [6]: 256 ± 31.1 nM

CC(=O)N[C@@H](CC(N)=O)C(=O)N[C@@H](Cc1c[nH]cn1)C(=O)N[C@@H](Cc1ccccc1)C(=O)N[C@H](C(=O)N1CCC[C@H]1C(=O)N[C@H](C(=O)N[C@@H](CO)C(=O)N[C@@H](CC(N)=O)C(=O)N[C@@H](CCCNC(=N)N)C(=O)N[C@@H](Cc1ccccc1)C(=O)N[C@@H](CC(N)=O)C(=O)N[C@@H](C)C(=O)N[C@@H](CCCCNC(=S)Nc1ccc2c(c1)C(=O)OC21c2ccc(O)cc2Oc2cc(O)ccc21)C(N)=O)[C@@H](C)O)C(C)C [α_P3] (Ac-NHFVPTSNRFNAK(FITC)-NH2)
IC50 [2]: 1240 nM | percent inhibition of microtubule polymerization [3]: 32% | Kd [4]: 0.12 ± 0.00123 nM | IC50 [8]: 4110 nM | Kd [5]: 79.2 ± 6.8 nM | Kd [6]: 162 ± 8.1 nM

CC(=O)N[C@H](C(=O)N[C@@H](CC(N)=O)C(=O)N1CCC[C@H]1C(=O)N[C@@H](CCC(N)=O)C(=O)N[C@@H](C)C(=O)N[C@@H](CCCNC(=N)N)C(=O)N[C@@H](Cc1c[nH]c2ccccc12)C(=O)N[C@@H](Cc1c[nH]cn1)C(=O)N[C@@H](CCC(=O)O)C(=O)N[C@@H](Cc1ccc(O)cc1)C(=O)N[C@@H](CC(N)=O)C(=O)N[C@@H](Cc1ccccc1)C(=O)N[C@@H](CCCCNC(=S)Nc1ccc2c(c1)C(=O)OC21c2ccc(O)cc2Oc2cc(O)ccc21)C(N)=O)[C@@H](C)O [β_P1] (Ac-TNPQARWHEYNFK(FITC)-NH2)
IC50 [2]: 6910 nM | percent inhibition of microtubule polymerization [3]: 21% | Kd [4]: 0.0419 ± 0.00105 nM | Kd [5]: 49.7 ± 2.9 nM | Kd [6]: 455 ± 50.7 nM

IGNSWPLTSHSW [α_P10, M13 phage clone displaying 12-mer […], selected against P. capsici α-tubulin]
Kd [4]: 0.144 ± 0.0011 nM

KVYAINSWTNYY [α_P13, M13 phage clone displaying 12-mer […], selected against P. capsici α-tubulin]
Kd [4]: 1.2 ± 0.0902 nM

LMNPATMKTSSG [α_P7, M13 phage clone displaying 12-mer […], selected against P. capsici α-tubulin]
Kd [4]: 0.36 ± 0.00187 nM

MVHSKASMWPGK [α_P12, M13 phage clone displaying 12-mer […], selected against P. capsici α-tubulin]
Kd [4]: 0.69 ± 0.00227 nM

NAITLLSPPLHK [α_P5]
percent inhibition of microtubule polymerization [3]: 5% and 4% | Kd [4]: 0.0571 ± 0.00177 nM

NFTINGKTHRLW [α_P4]
percent inhibition of microtubule polymerization [3]: 19% | Kd [4]: 0.298 ± 0.00145 nM

NPIGDNYSGTGL [β_P2]
percent inhibition of microtubule polymerization [3]: 2% | Kd [4]: 0.0371 ± 0.00141 nM

SNMKPSMEYSSR [α_P9, M13 phage clone displaying 12-mer […], selected against P. capsici α-tubulin]
Kd [4]: 0.273 ± 0.00179 nM

SSHNHDSYHGTK [α_P6, M13 phage clone displaying 12-mer […], selected against P. capsici α-tubulin]
Kd [4]: 0.476 ± 0.00273 nM

SYNTFMYERASK [α_P11, M13 phage clone displaying 12-mer […], selected against P. capsici α-tubulin]
Kd [4]: 0.562 ± 0.00169 nM

TNTSWDPQYNPD [α_P8, M13 phage clone displaying 12-mer […]; (so in the source), selected against P. capsici α-tubulin]
percent inhibition of microtubule polymerization [3]: 4% | Kd [4]: 0.0476 ± 0.00251 nM
